From PubChem BioAssay (NCI)
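48-hour exposure; five concentrations; linearly interpolated endpoints. Abbreviation: GI50, concentration required for 50% inhibition of growth. TGI: concentration producing complete growth inhibition.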

Assays:
Experiment in all cases: NCI anticancer screen, dose series, 48 h
NCI-H23 lung = tested on: NCI-H23 lung
K-562 leukemia = tested on: K-562 leukemia
UACC-257 melanoma = tested on: UACC-257 melanoma
786-0 renal = tested on: 786-0 renal
MDA-MB-435 = tested on: MDA-MB-435
MALME-3M melanoma = tested on: MALME-3M melanoma
RXF 393 renal = tested on: RXF 393 renal
SN12C renal = tested on: SN12C renal
M14 melanoma = tested on: M14 melanoma
IGROV1 ovarian = tested on: IGROV1 ovarian
SK-OV-3 ovarian = tested on: SK-OV-3 ovarian
OVCAR-4 ovarian = tested on: OVCAR-4 ovarian
NCI-H226 lung = tested on: NCI-H226 lung
BT-549 breast = tested on: BT-549 breast
SNB-19 CNS = tested on: SNB-19 CNS
SR leukemia = tested on: SR leukemia
A549 NSCLC = tested on: A549 NSCLC
SW-620 colon = tested on: SW-620 colon
ACHN renal = tested on: ACHN renal
MDA-MB-231 breast = tested on: MDA-MB-231 breast
HCC-2998 colon = tested on: HCC-2998 colon
HS 578T breast = tested on: HS 578T breast
SK-MEL-2 melanoma = tested on: SK-MEL-2 melanoma
SF-295 CNS = tested on: SF-295 CNS
NCI-H460 lung = tested on: NCI-H460 lung
HL-60(TB) leukemia = tested on: HL-60(TB) leukemia
NCI-H522 lung = tested on: NCI-H522 lung
KM12 colon = tested on: KM12 colon
T-47D breast = tested on: T-47D breast
A498 renal = tested on: A498 renal
HT29 colon = tested on: HT29 colon
COLO 205 colon = tested on: COLO 205 colon
MOLT-4 leukemia = tested on: MOLT-4 leukemia
SK-MEL-28 melanoma = tested on: SK-MEL-28 melanoma
OVCAR-8 ovarian = tested on: OVCAR-8 ovarian
HOP-92 NSCLC = tested on: HOP-92 NSCLC
SF-268 CNS = tested on: SF-268 CNS
DU-145 prostate = tested on: DU-145 prostate
OVCAR-5 ovarian = tested on: OVCAR-5 ovarian
UO-31 renal = tested on: UO-31 renal
HOP-62 NSCLC = tested on: HOP-62 NSCLC
NCI/ADR-RES ovarian = tested on: NCI/ADR-RES ovarian
UACC-62 melanoma = tested on: UACC-62 melanoma
CCRF-CEM leukemia = tested on: CCRF-CEM leukemia
CAKI-1 renal = tested on: CAKI-1 renal
U251 CNS = tested on: U251 CNS
SF-539 CNS = tested on: SF-539 CNS
TK-10 renal = tested on: TK-10 renal
RPMI-8226 leukemia = tested on: RPMI-8226 leukemia
SNB-75 CNS = tested on: SNB-75 CNS
EKVX NSCLC = tested on: EKVX NSCLC
HCT-15 colon = tested on: HCT-15 colon
SK-MEL-5 melanoma = tested on: SK-MEL-5 melanoma
PC-3 prostate = tested on: PC-3 prostate
LOX IMVI melanoma = tested on: LOX IMVI melanoma
MCF7 breast = tested on: MCF7 breast

`CNC[C@@H](NC(=O)c1ccc(-c2nc([C@H]3CC[C@H](O)[C@@H](F)C3)cnc2N)cc1F)c1cc(F)cc(Br)c1` gave a GI50 (NCI-H23 lung) of 17.8 µM, a TGI (NCI-H23 lung) of 35.3 µM and a GI50 (K-562 leukemia) of 13.6 µM. It also gave a TGI (K-562 leukemia) of 38.2 µM, a GI50 (UACC-257 melanoma) of 15 µM and a TGI (UACC-257 melanoma) of 30.5 µM. It also gave a GI50 (786-0 renal) of 14 µM, a TGI (786-0 renal) of 29.5 µM and a GI50 (MDA-MB-435) of 16.1 µM. For the same molecule, the TGI (MDA-MB-435) was 30.9 µM, the GI50 (MALME-3M melanoma) was 13.9 µM and the TGI (MALME-3M melanoma) was 28.9 µM. The GI50 (RXF 393 renal) was 6.28 µM, the TGI (RXF 393 renal) was 21.1 µM and the GI50 (SN12C renal) was 16.5 µM. The TGI (SN12C renal) was 32.9 µM, the GI50 (M14 melanoma) was 15.2 µM and the TGI (M14 melanoma) was 31.1 µM. The GI50 (IGROV1 ovarian) was 16 µM, the TGI (IGROV1 ovarian) was 34 µM and the GI50 (SK-OV-3 ovarian) was 17 µM. The TGI (SK-OV-3 ovarian) was 31.3 µM, the GI50 (OVCAR-4 ovarian) was 18.1 µM and the TGI (OVCAR-4 ovarian) was 50.2 µM. The GI50 (NCI-H226 lung) was 16.5 µM, the TGI (NCI-H226 lung) was 35.3 µM and the GI50 (BT-549 breast) was 11.2 µM. It also gave a TGI (BT-549 breast) of 25.3 µM, a GI50 (SNB-19 CNS) of 17.7 µM and a TGI (SNB-19 CNS) of 36 µM. For the same molecule, the GI50 (SR leukemia) was 13.1 µM, the TGI (SR leukemia) was 35.3 µM and the GI50 (A549 NSCLC) was 14.3 µM. It also gave a TGI (A549 NSCLC) of 30.1 µM, a GI50 (SW-620 colon) of 18.4 µM and a TGI (SW-620 colon) of 34.5 µM. For the same molecule, the GI50 (ACHN renal) was 15 µM, the TGI (ACHN renal) was 29.1 µM and the GI50 (MDA-MB-231 breast) was 12.7 µM. It also gave a TGI (MDA-MB-231 breast) of 27.3 µM, a GI50 (HCC-2998 colon) of 17.3 µM and a TGI (HCC-2998 colon) of 31.8 µM. The GI50 (HS 578T breast) was 12.6 µM, the TGI (HS 578T breast) was 39.4 µM and the GI50 (SK-MEL-2 melanoma) was 14 µM. The TGI (SK-MEL-2 melanoma) was 28.7 µM, the GI50 (SF-295 CNS) was 17.1 µM and the TGI (SF-295 CNS) was 32.5 µM. For the same molecule, the GI50 (NCI-H460 lung) was 17.7 µM, the TGI (NCI-H460 lung) was 33.5 µM and the GI50 (HL-60(TB) leukemia) was 13.6 µM. For the same molecule, the TGI (HL-60(TB) leukemia) was 34.2 µM, the GI50 (NCI-H522 lung) was 16.6 µM and the TGI (NCI-H522 lung) was 32.4 µM. The GI50 (KM12 colon) was 16 µM, the TGI (KM12 colon) was 31.3 µM and the GI50 (T-47D breast) was 18.3 µM. It also gave a TGI (T-47D breast) of 36.2 µM, a GI50 (A498 renal) of 13.1 µM and a TGI (A498 renal) of 26.7 µM. It also gave a GI50 (HT29 colon) of 13.2 µM, a TGI (HT29 colon) of 27 µM and a GI50 (COLO 205 colon) of 13 µM. The TGI (COLO 205 colon) was 27 µM, the GI50 (MOLT-4 leukemia) was 15 µM and the TGI (MOLT-4 leukemia) was 49.2 µM. For the same molecule, the GI50 (SK-MEL-28 melanoma) was 17 µM, the TGI (SK-MEL-28 melanoma) was 32.4 µM and the GI50 (OVCAR-8 ovarian) was 17.3 µM. For the same molecule, the TGI (OVCAR-8 ovarian) was 35 µM, the GI50 (HOP-92 NSCLC) was 2.57 µM and the TGI (HOP-92 NSCLC) was 16.5 µM. For the same molecule, the GI50 (SF-268 CNS) was 12.6 µM, the TGI (SF-268 CNS) was 30.2 µM and the GI50 (DU-145 prostate) was 17.2 µM. It also gave a TGI (DU-145 prostate) of 32.8 µM, a GI50 (OVCAR-5 ovarian) of 16.4 µM and a TGI (OVCAR-5 ovarian) of 40.2 µM. It also gave a GI50 (UO-31 renal) of 12.3 µM, a TGI (UO-31 renal) of 26.4 µM and a GI50 (HOP-62 NSCLC) of 14.3 µM. The TGI (HOP-62 NSCLC) was 28.7 µM, the GI50 (NCI/ADR-RES ovarian) was 38.9 µM and the TGI (NCI/ADR-RES ovarian) was > 100 µM. It also gave a GI50 (UACC-62 melanoma) of 17.4 µM, a TGI (UACC-62 melanoma) of 32.8 µM and a GI50 (CCRF-CEM leukemia) of 16 µM. The TGI (CCRF-CEM leukemia) was 39.1 µM, the GI50 (CAKI-1 renal) was 11.6 µM and the TGI (CAKI-1 renal) was 28.3 µM. For the same molecule, the GI50 (U251 CNS) was 14.6 µM, the TGI (U251 CNS) was 32.4 µM and the GI50 (SF-539 CNS) was 15.2 µM. For the same molecule, the TGI (SF-539 CNS) was 29.1 µM, the GI50 (TK-10 renal) was 12.2 µM and the TGI (TK-10 renal) was 28.9 µM. The GI50 (RPMI-8226 leukemia) was 11.2 µM, the TGI (RPMI-8226 leukemia) was 30.8 µM and the GI50 (SNB-75 CNS) was 4.09 µM. It also gave a TGI (SNB-75 CNS) of 23.5 µM, a GI50 (EKVX NSCLC) of 16.1 µM and a TGI (EKVX NSCLC) of 33.2 µM. It also gave a GI50 (HCT-15 colon) of 16.5 µM, a TGI (HCT-15 colon) of 31.8 µM and a GI50 (SK-MEL-5 melanoma) of 15.2 µM. It also gave a TGI (SK-MEL-5 melanoma) of 29.3 µM, a GI50 (PC-3 prostate) of 12.3 µM and a TGI (PC-3 prostate) of 25.5 µM. For the same molecule, the GI50 (LOX IMVI melanoma) was 15 µM, the TGI (LOX IMVI melanoma) was 29.4 µM and the GI50 (MCF7 breast) was 18.3 µM. It also gave a TGI (MCF7 breast) of 34.5 µM.
